Reference: US20200283734A1, “REPROGRAMMING OF A DIFFERENTIATED CELL TO AN UNDIFFERENTIATED CELL USING EXOSOME” (AGENCY FOR SCIENCE, TECHNOLOGY AND RESEARCH, priority 2017, published 2020)

Assays:
[1] = tested on: A431 EX-iCSCs; assay: Drug resistance assay (Alamar Blue cell viability), A431; format: cell-based; settings: A431 EX-iCSCs (FIG. 16)
Method: (§1) H7-exosome treated and non-treated A431 and MCF7 cancer cells were seeded at a density of 3×10^3 cells per well in a 96-well plate, in their respective medium. The anticancer drugs, cisplatin, doxorubicin and sunitinib were then added in concentration series ranging from 0.1 to 1000, 0.001 to 10, and 0.1 to 1000 μg/mL, respectively. After time periods of 24, 48 and 72 hours, the cells were subjected to an Alamar Blue assay for cell viability.
(§2) Drug resistance has been associated with stem cell-like traits in cancer cells. The MCF7 and A431 cell lines were treated with exosomes to induce EX-iCSCs, following which they were subjected to viability (Alamar Blue) assays (FIG. 16, FIG. 17).

[2] = tested on: MCF7 EX-iCSCs; assay: Drug resistance assay (Alamar Blue cell viability), MCF7; format: cell-based; settings: for drug resistance characteristics of EX-iCSCs towards cancer drugs: MCF7 EX-iCSCs (FIG. 17)
Method: as §1, §2

| Structure (SMILES) | drug resistance characteristics of EX-iCSCs towards cancer drugs [1] | drug resistance characteristics of EX-iCSCs towards cancer drugs [2] | viability of exosome-treated cells under drug compared to non-treated cells ([2]; MCF7, H7-exosome treated, all time points (24, 48 and 72 hours)) |
| --- | --- | --- | --- |
| N.N.[Cl][Pt][Cl] [cisplatin] | showed drug resistance characteristics | showed drug resistance characteristics |  |
| COc1cccc2c1C(=O)c1c(O)c3c(c(O)c1C2=O)C[C@@](O)(C(=O)CO)C[C@@H]3O[C@H]1C[C@H](N)[C@H](O)[C@H](C)O1 [doxorubicin] | showed drug resistance characteristics | showed drug resistance characteristics | significantly higher viability |
